Data reported in patent US6737383B1, “Herbicidal oxadiazolidines” (priority 1999, dated 2004).

Columns and labels:
[1] = tested on: purple nutsedge; test: Test B pre/postemergence purple nutsedge; format: in vivo, Cyperus rotundus
Method in brief: (§1)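 Response is a visual 0-to-10 score relative to untreated plants, where 0 means no effect and 10 means complete control, taken twelve to sixteen days after application. Treatments went onto soil at planting and onto foliage of 1- to 4-leaf plants, using a surfactant-containing non-phytotoxic solvent.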

[2] = tested on: wild oat; test: Test B pre/postemergence wild oat; format: in vivo, Avena fatua
Method in brief: as §1

[3] = tested on: cocklebur; test: Test B pre/postemergence cocklebur; format: in vivo, Xanthium strumarium
Method in brief: as §1

[4] = tested on: corn; test: Test B pre/postemergence corn; format: in vivo, Zea mays
Method in brief: as §1

[5] = tested on: blackgrass; test: Test B pre/postemergence blackgrass; format: in vivo, Alopecurus myosuroides
Method in brief: as §1

[6] = tested on: bamyardgrass; test: Test B flood test barnyardgrass; format: in vivo, Echinochloa crus-galli
Method in brief: (§2)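 Flood test on plants grown to the 2-leaf stage; treated plants kept in greenhouse twelve to sixteen days, then visually rated against controls on a 0 (no effect) to 10 (complete control) scale.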

[7] = tested on: bedstraw; test: Test B pre/postemergence bedstraw; format: in vivo, Galium aparine; details: scale of 0 to 10 where 0 is no effect and 10 is complete control
Method in brief: as §1

[8] = tested on: wheat; test: Test B pre/postemergence wheat; format: in vivo, Triticum aestivum
Method in brief: as §1

[9] = tested on: giant foxtail; test: Test B pre/postemergence giant foxtail; format: in vivo, Setaria faberii
Method in brief: as §1

[10] = tested on: rice; test: Test B flood test rice; format: in vivo, Oryza sativa
Method in brief: as §2

[11] = tested on: smallflower flatsedge; test: Test B flood test smallflower flatsedge; format: in vivo, Cyperus difformis
Method in brief: as §2

[12] = tested on: sugar beet; test: Test B pre/postemergence sugar beet; format: in vivo, Beta vulgaris
Method in brief: as §1

[13] = tested on: pigweed; test: Test B pre/postemergence pigweed; format: in vivo, Amaranthus retroflexus
Method in brief: as §1

[14] = tested on: crabgrass; test: Test B pre/postemergence crabgrass; format: in vivo, Digitaria sanguinalis
Method in brief: as §1

[15] = tested on: duck salad; test: Test B flood test duck salad; format: in vivo, Heteranthera limosa
Method in brief: as §2

[16] = tested on: morningglory; test: Test B pre/postemergence morningglory; format: in vivo, Ipomoea hederacea
Method in brief: as §1

[17] = tested on: rape; test: Test B pre/postemergence rape; format: in vivo, Brassica napus
Method in brief: as §1

[18] = tested on: soybean; test: Test B pre/postemergence soybean; format: in vivo, Glycine max
Method in brief: as §1

[19] = tested on: surinam grass; test: Test B pre/postemergence surinam grass; format: in vivo, Brachiaria decumbens
Method in brief: as §1

[20] = tested on: velvetleaf; test: Test B pre/postemergence velvetleaf; format: in vivo, Abutilon theophrasti
Method in brief: as §1

[21] = Preemergence, Rate 250 g/ha, scale of 0 to 10 where 0 is no effect and 10 is complete control
[22] = Rate 62 g/ha, Postemergence, scale 0 to 10, 0 no effect, 10 complete control
[23] = Rate 125 g/ha, Postemergence, scale of 0 to 10 where 0 is no effect and 10 is complete control
[24] = Rate 250 g/ha, Postemergence, scale of 0 to 10 where 0 is no effect and 10 is complete control
[25] = Preemergence, Rate 500 g/ha, scale of 0 to 10 where 0 is no effect and 10 is complete control
[26] = Rate 500 g/ha, Postemergence, scale 0 to 10, 0 no effect, 10 complete control
[27] = Rate 62 g/ha, headed Pre-emergence (flood test species), scale 0 to 10 (0 no effect, 10 complete control)
[28] = Rate 125 g/ha, Pre-emergence, flood test species, scale 0 to 10 where 0 is no effect and 10 is complete control
[29] = Rate 250 g/ha, Pre-emergence, flood-test species, scale 0 to 10, 0 is no effect, 10 is complete control
[30] = Rate 500 g/ha, Pre-emergence, flood test species, scale 0 to 10 (0 no effect, 10 complete control)

## CCc1cccc(CC)c1-n1c(=O)on(C(=O)N(c2ccccc2)C(C)C)c1=O [Compound 305]
[1]; Preemergence, Rate 125 g/ha
  Nutsedge plant response rating (0 to 10 scale): 0
[1]; [21]
  Nutsedge plant response rating: 0
[1]; [22]
  Nutsedge plant response rating: 0
[1]; [23]
  Nutsedge plant response rating: 0
[1]; [24]
  Plant response rating, Nutsedge: 0
[2]; Preemergence, Rate 125 g/ha
  Wild oats plant response rating (0 to 10 scale): 0
[2]; [21]
  Wild oats plant response rating: 0
[2]; [25]
  Wild oats plant response rating: 1
[2]; [22]
  Wild oats plant response rating: 0
[2]; [23]
  Wild oats plant response rating: 0
[2]; [24]
  Plant response rating, Wild oats: 0
[3]; Preemergence, Rate 125 g/ha
  Cocklebur plant response rating (0 to 10 scale): 0
[3]; [21]
  Cocklebur plant response rating: 0
[3]; [25]
  Cocklebur plant response rating: 0
[3]; [22]
  Cocklebur plant response rating: 0
[3]; [23]
  Cocklebur plant response rating: 0
[3]; [24]
  Plant response rating, Cocklebur: 0
[3]; [26]
  Cocklebur plant response rating: 0
[4]; Preemergence, Rate 125 g/ha
  Corn plant response rating (0 to 10 scale): 0
[4]; [21]
  Corn plant response rating: 0
[4]; [25]
  Corn plant response rating: 0
[4]; [22]
  Corn plant response rating: 0
[4]; [23]
  Corn plant response rating: 0
[4]; [24]
  Plant response rating, Corn: 0
[4]; [26]
  Corn plant response rating: 0
[5]; Preemergence, Rate 125 g/ha
  Blackgrass plant response rating (0 to 10 scale): 0
[5]; [21]
  Blackgrass plant response rating: 0
[5]; [25]
  Blackgrass plant response rating: 4
[5]; [22]
  Blackgrass plant response rating: 0
[5]; [23]
  Blackgrass plant response rating: 0
[5]; [24]
  Plant response rating, Blackgrass: 0
[5]; [26]
  Blackgrass plant response rating: 0
[6]; [27]
  Barnyardgrass plant response rating: 0
[6]; [28]
  Barnyardgrass plant response rating: 0
[6]; [29]
  Barnyardgrass plant response rating: 0
[6]; [30]
  Barnyardgrass plant response rating: 0
[7]; Preemergence, Rate 250 g/ha
  Bedstraw plant response rating: 0
[7]; Preemergence, Rate 500 g/ha
  Bedstraw plant response rating: 0
[7]; Rate 125 g/ha, Postemergence
  Bedstraw plant response rating: 0
[8]; Preemergence, Rate 125 g/ha
  Wheat plant response rating (0 to 10 scale): 0
[8]; [21]
  Wheat plant response rating: 0
[8]; [25]
  Wheat plant response rating: 0
[8]; [22]
  Wheat plant response rating: 0
[8]; [23]
  Wheat plant response rating: 0
[8]; [24]
  Plant response rating, Wheat: 0
[9]; Preemergence, Rate 125 g/ha
  Giant foxtail plant response rating (0 to 10 scale): 8
[9]; [21]
  Giant foxtail plant response rating: 9
[9]; [25]
  Giant foxtail plant response rating: 10
[9]; [22]
  Giant foxtail plant response rating: 0
[9]; [23]
  Giant foxtail plant response rating: 0
[9]; [24]
  Plant response rating, Giant foxtail: 0
[10]; [27]
  Rice plant response rating: 0
[10]; [28]
  Rice plant response rating: 0
[10]; [29]
  Rice plant response rating: 0
[10]; [30]
  Rice plant response rating: 0
[11]; [27]
  S. Flatsedge plant response rating: 0
[11]; [28]
  S. Flatsedge plant response rating: 0
[11]; [29]
  S. Flatsedge plant response rating: 0
[11]; [30]
  S. Flatsedge plant response rating: 0
[12]; Preemergence, Rate 125 g/ha
  Sugarbeets plant response rating (0 to 10 scale): 0
[12]; [21]
  Sugarbeets plant response rating: 0
[12]; [25]
  Sugarbeets plant response rating: 3
[12]; [22]
  Sugarbeets plant response rating: 0
[12]; [23]
  Sugarbeets plant response rating: 0
[12]; [24]
  Plant response rating, Sugarbeets: 0
[13]; Preemergence, Rate 125 g/ha
  Redroot pigweed plant response rating (0 to 10 scale): 0
[13]; [21]
  Redroot pigweed plant response rating: 3
[13]; [25]
  Redroot pigweed plant response rating: 7
[13]; [22]
  Redroot pigweed plant response rating: 3
[13]; [23]
  Redroot pigweed plant response rating: 3
[13]; [24]
  Plant response rating, Redroot pigweed: 4
[14]; Preemergence, Rate 125 g/ha
  Crabgrass plant response rating (0 to 10 scale): 4
[14]; [21]
  Crabgrass plant response rating: 6
[14]; [25]
  Crabgrass plant response rating: 7
[14]; [22]
  Crabgrass plant response rating: 0
[14]; [23]
  Crabgrass plant response rating: 0
[14]; [24]
  Plant response rating, Crabgrass: 0
[15]; [27]
  Ducksalad plant response rating: 0
[15]; [28]
  Ducksalad plant response rating: 0
[15]; [29]
  Ducksalad plant response rating: 0
[15]; [30]
  Ducksalad plant response rating: 0
[16]; Preemergence, Rate 125 g/ha
  Morningglory plant response rating (0 to 10 scale): 0
[16]; [21]
  Morningglory plant response rating: 0
[16]; [25]
  Morningglory plant response rating: 0
[16]; [22]
  Morningglory plant response rating: 0
[16]; [23]
  Morningglory plant response rating: 0
[16]; [24]
  Plant response rating, Morningglory: 0
[17]; Preemergence, Rate 125 g/ha
  Rape plant response rating (0 to 10 scale): 0
[17]; [21]
  Rape plant response rating: 0
[17]; [25]
  Rape plant response rating: 0
[17]; [22]
  Rape plant response rating: 0
[17]; [23]
  Rape plant response rating: 0
[17]; [24]
  Plant response rating, Rape: 0
[18]; Preemergence, Rate 125 g/ha
  Soybean plant response rating (0 to 10 scale): 0
[18]; [21]
  Soybean plant response rating: 0
[18]; [25]
  Soybean plant response rating: 0
[18]; [22]
  Soybean plant response rating: 4
[18]; [23]
  Soybean plant response rating: 4
[18]; [24]
  Plant response rating, Soybean: 4
[19]; Preemergence, Rate 125 g/ha
  B. signalgrass plant response rating (0 to 10 scale, 0 is no effect, 10 is complete control): 0
[19]; [21]
  B. signalgrass plant response rating: 0
[19]; [25]
  B. signalgrass plant response rating: 5
[19]; [22]
  B. signalgrass plant response rating: 0
[19]; [23]
  B. signalgrass plant response rating: 0
[19]; [24]
  Plant response rating, B. signalgrass: 0
[19]; [26]
  B. signalgrass plant response rating: 0
[20]; Preemergence, Rate 125 g/ha
  Velvetleaf plant response rating (0 to 10 scale): 0
[20]; [21]
  Velvetleaf plant response rating: 0
[20]; [25]
  Velvetleaf plant response rating: 0
[20]; [22]
  Velvetleaf plant response rating: 0
[20]; [23]
  Velvetleaf plant response rating: 0
[20]; [24]
  Plant response rating, Velvetleaf: 0
